Patent publication US12264148B2, “Ivosidenib forms and pharmaceutical compositions” (Servier Pharmaceuticals LLC, priority 2018, dated 2025)
≈ marks a conversion by molar mass, not a printed value.

Key:
[1] = test system: bacterial reverse mutation; conditions: Registered substances; cited from earlier work
[2] = test system: bacterial reverse mutation; assay: In vitro bacterial reverse mutation assay (Ames)
mutant IDH1 (mIDH1) = conditions: cited from earlier work
mutant IDH2 (mIDH2) = conditions: tool compound; Rohle et al. Science 2013; cited from earlier work
mIDH1-driven gliomas = conditions: some model systems; Rohle et al. Science 2013; cited from earlier work
[3] = Dissolution of 250 mg tablets spiked with crystalline form, Medium A (pH 6.8, 0.6% SDS); format: physicochemical; conditions: 250 mg tablets vs target (nominal) formulation
From the text: (§1) In order to assess the impact of crystalline polymorphic forms on dissolution profiles, variant tablets were manufactured with SDI spiked with drug substance of two different crystalline polymorphs: Form B, and Form L, which forms are as described above. As used herein, the term “spiked” or “spiking” is used consistently with usage in the field of pharmaceutical manufacturing, namely the introduction of a particular form to the crystallization solution to encourage nucleation and growth. These forms were selected because it was determined that if an SDI should crystallize, these two forms would be most likely to be present. However, it is noted that the SDI can be reliably made in completely amorphous form, with no detectable crystalline form present even under stressed conditions.
250 mg tables were manufactured by adding 50 mg (20% w/w) of crystalline Form L or Form B with the ivosidenib SDI (therefore, amorphous SDI was present at 80% w/w as a measure of the active ingredient.) […]
Similar dissolution studies were undertaken with Medium B (pH 6.8, 0.4% SDS). Similarity factors (f2) were calculated to assess the dissolution profiles, compared to a target formulation. […]

[4] = Dissolution of 250 mg tablets spiked with crystalline form, Medium B (pH 6.8, 0.4% SDS); format: physicochemical; conditions: 250 mg tablets vs target (nominal) formulation
From the text: as §1
250 mg tables were manufactured by adding 50 mg (20% w/w) of crystalline Form L or Form B with the ivosidenib SDI (therefore, amorphous SDI was present at 80% w/w as a measure of the active ingredient.)
Similar dissolution studies were undertaken with Medium B (pH 6.8, 0.4% SDS). Similarity factors (f2) were calculated to assess the dissolution profiles, compared to a target formulation. The similarity factors are included in Table 21.

[5] = Solubility of solid state forms in methanol; format: physicochemical
[6] = Solubility in 5:95 v/v iPrOAc:heptane slurry; format: physicochemical; conditions: remained a thick slurry
[7] = Competitive slurries of Form L, Form M and Form N; format: physicochemical; conditions: Form L, N in dichloromethane, heptane, tBME, acetone, ambient or 35/50 °C
Description: The temperature was increased to 70° C. to dissolve material. Anti-solvent addition (60 mL heptane) at 60 mL/h was carried out at 70° C. Once the anti-solvent addition was complete, the reaction was cooled to 60° C. and seeded with 0.63 g of Form B ivosidenib, which was stirred at 60° C. for 4 h then cooled to 15° C. over 10 h. An anti-solvent addition was started (308 mL heptane) at 75 mL/h, 15° C., 200 rpm. When the anti-solvent addition finished, the mixture was stirred at 15° C. for 2 h then isolated solid through filtration using a Buchner funnel (120 mm Ø) and washed with 246 mL of iPrOAc:heptane (1:1 v/v). In isopropyl acetate:heptane 5:95 v/v, Form N was retained, while in isopropyl acetate:heptane 20:80 v/v, a mixture of Form B and Form N was obtained.
The following procedure was followed for competitive slurry trials of the Form L, Form M, and Form N polymorphs: Approximately 50 or 75 mg of each different solid form was weighed out into 1.5 mL screw-cap vials. […]
Aliquots (100 μL or 25 μL) of appropriate solvent added as required to obtain a mobile slurry which was then stirred at either ambient (ca. 23° C.) or elevated (35 or 50° C.) temperature for ca. 21 or 68.5 h (see Table 4 for details). Solids were isolated solid by centrifugation and analyzed by XRPD. […]

[8] = potential impurities of ivosidenib drug substance; cited from earlier work
[9] = Approximate solubility of ivosidenib freebase in 20 solvent systems at RT; format: physicochemical
Description: Approximate solubility of ivosidenib freebase was determined in 20 solvent systems at RT. In the experiment, ˜2 mg of ivosidenib was added into a 3-mL glass vial, followed by the addition of corresponding solvent. The solvent was added by 100 μL step wise until the solution was visually clear or a total volume of 2 mL was reached. This solubility information was used to select solvents for the polymorph screening.

mutant IDH1 proteins = conditions: U.S. Publication No. 2013/0190249 A1; cited from earlier work

For `Clc1ccccc1C(Cl)Cl` [1-chloro-2-(dichloromethyl)benzene], the “Ames result reported by ECHA” value [1] is listed as “Ames-negative”.
For `ClCc1ccccc1Cl` [2-chlorobenzyl chloride], the “Ames result reported by ECHA” value [1] is given as “Ames-negative”.
With `Fc1cncc(/N=C/c2ccccc2Cl)c1` [(E)-1-(2-chlorophenyl)-N-(5-fluoropyridin-3-yl) methanimine] the Ames test result [2] was “negative”.
In the case of `Cc1ccccc1C(C(=O)NC1CCCCC1)N(C(=O)Cn1ccnc1C)c1cccc(F)c1` (stereo not drawn) [AGI-5198], the “inhibition of mutant IDH1” value (mutant IDH1 (mIDH1); tool compound, Rohle et al. Science 2013) is listed as “inhibit mutant IDH1 (mIDH1)”, the “inhibition of mutant IDH2” value (mutant IDH2 (mIDH2)) is listed as “not mutant IDH2 (mIDH2)” and the “growth of mIDH1-driven gliomas” value (mIDH1-driven gliomas) is listed as “repress growth”.
With `N#Cc1ccnc(N2C(=O)CC[C@H]2C(=O)N(c2cncc(F)c2)[C@H](C(=O)NC2CC(F)(F)C2)c2ccccc2Cl)c1` [Form B] the “Similarity factor (f2) result for dissolution medium A” value [3] was 26.0 and the “Similarity factor (f2) result for dissolution medium B” value [4] was 43.1.
With `N#Cc1ccnc(N2C(=O)CC[C@H]2C(=O)N(c2cncc(F)c2)[C@H](C(=O)NC2CC(F)(F)C2)c2ccccc2Cl)c1` [Form L] the “Similarity factor (f2) result for dissolution medium A” value [3] was 28.9 and the “Similarity factor (f2) result for dissolution medium B” value [4] was 48.5.
In the case of `N#Cc1ccnc(N2C(=O)CC[C@H]2C(=O)N(c2cncc(F)c2)[C@H](C(=O)NC2CC(F)(F)C2)c2ccccc2Cl)c1` [Form M], the solubility in methanol [5] is reported as 109 mg/mL (≈ 187 mM), the solubility ([5]; organic solvent or mixture, thermodynamic from solid, compared with ~70 mg/mL AG-120 in the SDI spray solution, read-out: solubility) is reported as ~110 mg/mL (≈ 189 mM) and the “solubility in 5:95 v/v iPrOAc:heptane” value [6] is reported as “poorly soluble”.
In the case of `N#Cc1ccnc(N2C(=O)CC[C@H]2C(=O)N(c2cncc(F)c2)[C@H](C(=O)NC2CC(F)(F)C2)c2ccccc2Cl)c1` [Form N], the solubility ([5]; compared with ~70 mg/mL AG-120 in the SDI spray solution) is reported as ~110 mg/mL (≈ 189 mM), the solubility ([5]; organic solvent or mixture, thermodynamic from solid, read-out: solubility in methanol) is reported as 113 mg/mL (≈ 194 mM) and the “solubility in 5:95 v/v iPrOAc:heptane” value [6] is reported as “poorly soluble”. The “most stable anhydrous form in competitive slurries” value [7] was “stable anhydrous form”.
In the case of `O=Cc1ccccc1` [benzaldehyde], the “mutagenicity according to literature” value [8] is given as “known mutagens”.
For `c1ccccc1` [benzene], the “mutagenicity according to literature” value [8] is given as “known mutagens”.
In the case of `ClCc1ccccc1` [benzyl chloride], the “mutagenicity according to literature” value [8] is given as “known mutagens”.
For `N#Cc1ccnc(N2C(=O)CC[C@H]2C(=O)N(c2cncc(F)c2)[C@H](C(=O)NC2CC(F)(F)C2)c2ccccc2Cl)c1` [ivosidenib, (S)—N—((S)-1-(2-Chlorophenyl)-2-(3,3-difluorocyclobutylamino)-2-oxoethyl)-1-(4-cyanopyridin-2-yl)-N-(5-fluoropyridin-3-yl)-5-oxopyrrolidine-2-carboxamide], the “Solubility (mg/mL)” value ([9]; Acetic acid, RT) was 40.4~20.2 mg/mL, the “Solubility (mg/mL)” value ([9]; DMSO, RT) was 46.6~23.2 mg/mL and the “Solubility (mg/mL)” value ([9]; IPA, RT) was 38.8~19.4 mg/mL. The “Solubility (mg/mL)” value ([9]; IPAC, RT) was 40.2~20.1 mg/mL, the “Solubility (mg/mL)” value ([9]; MIBK, RT) was 18.6~12.0 mg/mL and the “Solubility (mg/mL)” value ([9]; Toluene, RT) was 18.6~12.4 mg/mL. For the same compound, the solubility ([9]; organic solvent or mixture, thermodynamic from solid, 1,4-Dioxane, RT) was > 41.6 mg/mL, the solubility ([9]; organic solvent or mixture, thermodynamic from solid, 2-MeTHF, RT) was > 41.4 mg/mL and the solubility ([9]; organic solvent or mixture, thermodynamic from solid, ACN, RT) was > 36.8 mg/mL. For the same compound, the solubility ([9]; organic solvent or mixture, thermodynamic from solid, Acetone, RT) was > 36.4 mg/mL, the solubility ([9]; organic solvent or mixture, thermodynamic from solid, CHCl3, RT) was > 38.2 mg/mL and the solubility ([9]; organic solvent or mixture, thermodynamic from solid, DMA, RT) was > 24.5 mg/mL. The solubility ([9]; organic solvent or mixture, thermodynamic from solid, EtOAc, RT) was > 41.8 mg/mL, the solubility ([9]; organic solvent or mixture, thermodynamic from solid, EtOH, RT) was > 39.4 mg/mL and the solubility ([9]; organic solvent or mixture, thermodynamic from solid, Heptane, RT) was < 0.95 mg/mL. For the same compound, the solubility ([9]; organic solvent or mixture, thermodynamic from solid, MTBE, RT) was > 37.8 mg/mL, the solubility ([9]; organic solvent or mixture, thermodynamic from solid, MeOH, RT) was > 47.6 mg/mL and the solubility ([9]; organic solvent or mixture, thermodynamic from solid, NMP, RT) was > 42 mg/mL. For the same compound, the solubility ([9]; organic solvent or mixture, thermodynamic from solid, THF, RT) was > 39 mg/mL, the solubility ([9]; water, thermodynamic from solid, H2O, RT) was < 1.26 mg/mL and the “inhibition of mutant IDH1 proteins in biochemical assays” value (mutant IDH1 (mIDH1); U.S. Publication No. 2013/0190249 A1) was “inhibitor”. For the same compound, the “inhibition of mutant IDH1 proteins in cellular assays” value (mutant IDH1 proteins) was “inhibitor”.
